Read-outs that look alike come from different tables or passages of the source.

One test addresses Cass2 (Vibrio cholerae, UniProt D0VX23). Particulars: tryptophan fluorescence quenching, 24°C, pH 7.5; read-out: Ligand binding affinity KD, Cass2 wt.
A further test has as its target (E134Q)Cass2 (Vibrio cholerae, UniProt D0VX23, E134Q). Particulars: pH 7.5; read-out: Ligand binding affinity KD, Cass2 E134Q.
In test [1] the target is BmrR. Particulars: isothermal titration calorimetry binding assays; read-out: Ligand binding affinity KD, BmrR wt; cited from earlier work. A general note: ITC needs no label: the signal is the heat of the interaction.
The target in test [2] is BmrR. The note with it: equilibrium dialysis methods; read-out: Ligand binding affinity KD, BmrR wt; cited from earlier work. Background: In equilibrium dialysis only unbound substance equilibrates across the membrane.

One may read the Kd as the equilibrium constant for the complex coming apart. Regarding benzalkonium chloride, the Kd stood at 100 nM on Cass2 and 300 ± 60 nM at (E134Q)Cass2.
With `c1ccc([P+](c2ccccc2)(c2ccccc2)c2ccccc2)cc1` [tetraphenylphosphonium (TPP), tetraphenylphosphonium chloride], the dissociation constant Kd on BmrR [1] was 74000 ± 20500 nM; on BmrR [2], 100000 nM; at Cass2, 200 ± 80 nM; on (E134Q)Cass2, 200 ± 130 nM.
